Columns and labels:
[1] = tested on: glucocorticoid receptor transactivating and DNA binding domains fused to the ecdysone receptor hinge and ligand binding domains; settings: mammalian cells; cited from earlier work
[2] = biological target: T1, glucocorticoid/Heliothis ecdysone chimeric receptor (UniProt O18473+P04150); test: CHO cells transfected with pcDNA3GRHEcR and pSWGRE4 (β-galactosidase reporter); type: cell-based, Heliothis virescens; set-up: expressed in transfected cells; host or cells: CHO-K1 (A7); settings: co-transformed CHO cells (FIG. 27)
T1 sequence (P04150+O18473 with tags, fused parts or gaps): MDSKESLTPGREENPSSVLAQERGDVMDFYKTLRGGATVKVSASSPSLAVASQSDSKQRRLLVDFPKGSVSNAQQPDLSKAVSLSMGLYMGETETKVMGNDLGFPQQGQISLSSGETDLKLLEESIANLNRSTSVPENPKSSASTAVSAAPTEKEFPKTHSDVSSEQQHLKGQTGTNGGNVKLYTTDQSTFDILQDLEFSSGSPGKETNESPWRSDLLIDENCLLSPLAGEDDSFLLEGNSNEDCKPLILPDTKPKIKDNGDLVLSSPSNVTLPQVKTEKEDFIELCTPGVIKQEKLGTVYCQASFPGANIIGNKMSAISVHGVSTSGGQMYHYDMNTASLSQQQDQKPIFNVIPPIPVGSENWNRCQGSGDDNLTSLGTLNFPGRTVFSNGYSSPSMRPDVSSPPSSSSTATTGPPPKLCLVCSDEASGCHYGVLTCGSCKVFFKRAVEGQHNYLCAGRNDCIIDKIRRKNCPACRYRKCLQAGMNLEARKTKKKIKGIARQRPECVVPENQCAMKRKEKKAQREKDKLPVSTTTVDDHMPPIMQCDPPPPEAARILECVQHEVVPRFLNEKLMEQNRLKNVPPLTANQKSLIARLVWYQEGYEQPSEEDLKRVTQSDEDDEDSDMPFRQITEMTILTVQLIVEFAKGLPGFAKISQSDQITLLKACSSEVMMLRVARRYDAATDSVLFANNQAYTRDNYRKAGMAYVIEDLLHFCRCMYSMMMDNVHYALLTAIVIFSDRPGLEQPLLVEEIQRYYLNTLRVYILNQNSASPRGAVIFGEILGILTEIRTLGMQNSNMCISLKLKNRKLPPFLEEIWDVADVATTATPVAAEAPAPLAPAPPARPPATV
Procedure: Transfections of mammalian cell lines (CHO-K1 Chinese hamster ovary) ATCC number CCL61 or cos-1 (Monkey cell line) were performed using either calcium phosphate precipitation (Gorman, Chapter 6 of “DNA cloning: a practical approach. Vol 2 D. M. Glover ed/.(1985) IRL Press, Oxford) or using LipofectAMINE (Gibco BRL Cat. No. 18324–012, following manufacturer's instructions). […] 293 cells were transfected using analogous methods.
The mammalian expression vector used in this experiment was pcDNA3 (Invitrogen). The GRHEcR 2.7 kb BamHI DNA fragment (isolated from pMF6GRHEcR) was introduced into the pcDNA3 BamHI vector. The recombinants were oriented by restriction enzyme mapping. The DNA sequence of the junctions was determined to ensure correct orientation and insertion (pcDNA3GRHEcR, FIG. 25).
The reporter plasmid for mammalian cell system was produced by taking pSWBGAL plasmid and replacing the CRESW SpeI/ClaI fragment for a synthetic 105 bp DNA fragment containing 4 copies of the glucocorticoid response element (GRE) and flanked by SpeI at the 5′ end and AflII at the 3′ end.
The two oligonucleotides were purified annealed and ligated to pSWBGAL SpeI/AflII to produce pSWGRE4 (FIG. 26).
A screen was carried out using CHO cells transiently transfected with both pSWGRE4 (reporter) and pcDNA3GRHEcR (effector) constructs. […]

[3] = biological target: T1, glucocorticoid/Heliothis ecdysone chimeric receptor; test: Tobacco mesophyll protoplast GUS reporter assay with chimeric effector and p221.9GRE6; type: cell-based, Heliothis virescens; set-up: expressed in transfected cells; host or cells: maize protoplasts (A5); tobacco mesophyll protoplasts (A6); CHO-K1 (A7); HEK293 (A8); stably transformed tobacco plants (A9); settings: tobacco protoplasts, 10 μM
Procedure: It is the aim in this example to show the generic application to plants of the glucocorticoid/Heliothis ecdysone chimeric receptor switch system. Tobacco shoot cultures cv. Samsun, were maintained on solidified MS medium +3% sucrose in a controlled environment room (16 hour day/8 hour night at 25° C., 55% R.H), were used as the source material for protoplasts. Leaves were sliced parallel to the mid-rib, discarding any large veins and the slices were placed in CPW13M 13% Mannitol, pH 5.6, ˜860 mmol/kg) for ˜1 hour to pre-plasmolyse the cells. This solution was replaced with enzyme mixture (0.2% Cellulase R10, 0.05% Macerozyme R10 in CPW9M (CPW13M but 9% Mannitol), pH 5.6, ˜600 mmol/kg) and incubated in the dark at 25° C. overnight (˜16 hours). Following digestion, the tissue was teased apart with forceps and any large undigested pieces were discarded. The enzyme mixture was passed through a 75 μm sieve and the filtrate was centrifuged at 600 rpm for 3.5 minutes, discarding the supernatant. The pellet was resuspended in 0.6 M sucrose solution and centrifuged at 600 rpm for 10 minutes. The floating layer of protoplasts was removed using a Pasteur pipette and diluted with CPW9M (pH 5.6, ˜560 mmol/kg). The protoplasts were again pelleted by centrifuging at 600 rpm for 3.5 minutes, resuspended in CPW9M and counted. A modified version of the PEG-mediated transformation above was carried out. […]

Compound | activity of chimeric receptor as homodimer [1] | chemical induced reporter gene activity [2] | marker gene activity [3]
CC(C)CC[C@@H](O)[C@](C)(O)[C@H]1CC[C@@]2(O)C3=CC(=O)[C@]4(O)C[C@@H](O)[C@@H](O)C[C@]4(C)[C@H]3[C@H](O)C[C@]12C [Muristerone A] | active | – | –
CCc1ccc(C(=O)NN(C(=O)c2cc(C)cc(C)c2)C(C)(C)C)cc1 [RH5992, 3,5-dimethylbenzoic acid 1-1(1,1-dimethylethyl)-2(4-ethylbenzoyl)hydrazide] | – | significant chemical induced reporter gene activity | significant elevation of marker gene activity

Reference: patent US7183061B2, “Method of expressing Heliothis ecdysone receptor fusion protein” (Syngenta Limited, priority 1996, dated 2007)
